Assay results: patent publication US9707200B2, “Metabolism-improving agent comprising rare fatty acid” (KYOTO UNIVERSITY, priority 2012, dated 2017)

Legend:
PPARα = biological target: T1, PPARα (Homo sapiens, UniProt Q07869); assay: PPARα ligand activity, GAL4-PPARα reporter luciferase assay in CV-1 cells; format: cell-based; settings: 24 hr incubation, KetoA and HYA each at 30 μM, other fatty acids by a similar method
T1 construct: expressed in transfected cells; host or cells: CV-1 (African green monkey kidney)
T1 sequence (Q07869 239-466 limits assumed): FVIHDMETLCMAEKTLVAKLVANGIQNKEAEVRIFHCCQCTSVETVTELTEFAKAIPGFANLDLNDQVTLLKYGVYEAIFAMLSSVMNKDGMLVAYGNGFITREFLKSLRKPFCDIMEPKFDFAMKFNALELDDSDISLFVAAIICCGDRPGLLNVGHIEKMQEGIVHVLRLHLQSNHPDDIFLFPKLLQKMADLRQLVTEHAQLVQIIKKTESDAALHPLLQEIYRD
Procedure: (§1) To evaluate the function of oxo fatty acid and the like, PPARα, γ-activating action was measured first. The measurement was performed in reference to Nobuyuki Takahashi et al., FEES Letters 514 (2002) p. 315-322, “Dual action of isoprenols from herbal medicines on both PPARgamma and PPARalpha in 3T3-L1 adipocytes and HepG2 hepatocytes.”, the section of Materials and Methods “Reporter plasmids and luciferase assays”. To be specific, a plasmid containing DNA encoding a fused protein of PPARα, γ ligand binding region and GAL4 DNA binding region (pM-hPPARα or pM-hPPARγ), a reporter plasmid containing GAL4 binding DNA sequence linked to luciferase (p4xUASg-tk-luc), and internal control (pRL-CMV) to standardize transfection efficiency were introduced into CV-1 cell derived from the kidney of African green monkey. The ligand described below was added to the cells and, after incubation for 24 hr, luciferase activity was measured. As a ligand, KetoA and HYA were each added at 30 μM.
(§2) The concentration of the sample was adjusted with ethanol. Ethanol was used as a negative control, […], and GW7647 (10 nM) and Troglitazone (5 μM) were used as […].

LXR = biological target: T2, LXR (Homo sapiens, UniProt Q13133); assay: Antagonizing action on LXR by luciferase assay; format: cell-based; settings: overall finding from SREBP-1c, SREBP-1, SCD-1, FAS, ACC1, 2, triacylglycerol and LXR luciferase measurements in HepG2 cells
T2 construct: expressed in transfected cells; host or cells: HepG2 (human liver cancer-derived)
T2 sequence (Q13133 1-447): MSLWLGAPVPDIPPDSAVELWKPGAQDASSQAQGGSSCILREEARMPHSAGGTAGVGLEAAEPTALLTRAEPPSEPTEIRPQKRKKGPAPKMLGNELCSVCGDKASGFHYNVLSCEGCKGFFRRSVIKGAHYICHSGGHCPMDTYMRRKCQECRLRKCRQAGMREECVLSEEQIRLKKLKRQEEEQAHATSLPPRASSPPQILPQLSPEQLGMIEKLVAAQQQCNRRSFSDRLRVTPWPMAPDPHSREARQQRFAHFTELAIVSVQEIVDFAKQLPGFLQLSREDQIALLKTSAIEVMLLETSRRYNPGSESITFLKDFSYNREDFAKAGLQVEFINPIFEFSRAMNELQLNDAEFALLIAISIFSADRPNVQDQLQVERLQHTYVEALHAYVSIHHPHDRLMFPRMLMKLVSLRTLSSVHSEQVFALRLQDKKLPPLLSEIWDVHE
Procedure: In addition, the protein expression level of immature and mature SREBP-1c was measured. Cells treated as mentioned above were dispersed in buffer A (250 mM sucrose, 10 mM HEPES-KOH, 10 mM KCl, 1.5 mM MgCl2, 1 mM EDTA-Na, 1 mM EGTA-Na, pH 7.6) containing a protease inhibitor, passed 20 times through a 23 gauge injection needle, and centrifuged (1,000×g, 4° C., 5 min) to separate into supernatant 1 and precipitate 1. The precipitate 1 was re-dissolved in buffer B (20 mM HEPES-KOH, 0.42 M NaCl, 2.5% glycerol, 1.5 mM MgCl2, 1 mM EDTA-Na, 1 mM EGTA-Na, pH 7.6), and centrifuged (10^5×g, 4° C., 15 min). The obtained supernatant 2 was used as a nuclear fraction (including mature form). The supernatant 1 was further centrifuged (10^5×g, 4° C., 15 min), and the obtained precipitate 2 was dissolved in cell lysate (10 mM Tris-HCl, 100 mM NaCl, 1% SDS, 1 mM EDTA-Na, 1 mM EGTA-Na) and used as a membrane fraction (including immature form). Using these as samples, measurement was performed by Western blot method using anti-SREBP-1 polyclonal antibody (Santa Cruz). Using Dual luciferase system (Promega), antagonizing action on LXR was evaluated by luciferase assay. p3xIR1-tk-Luc, pCMX-hLXRa, pRL-CMX were introduced into HepG2 cell. After culture in a 0.1% BSA-containing serum-free medium containing various fatty acids and T0901317 for 24 hr, the luciferase activity was measured.

PPARγ = biological target: T3, PPARγ (Homo sapiens, UniProt P37231); assay: PPARγ ligand activity, GAL4-PPARγ reporter luciferase assay in CV-1 cells; format: cell-based; settings: 24 hr incubation, KetoA and HYA each at 30 μM, other fatty acids by a similar method
T3 construct: expressed in transfected cells; host or cells: CV-1 (African green monkey kidney)
T3 sequence (P37231 238-503 limits assumed): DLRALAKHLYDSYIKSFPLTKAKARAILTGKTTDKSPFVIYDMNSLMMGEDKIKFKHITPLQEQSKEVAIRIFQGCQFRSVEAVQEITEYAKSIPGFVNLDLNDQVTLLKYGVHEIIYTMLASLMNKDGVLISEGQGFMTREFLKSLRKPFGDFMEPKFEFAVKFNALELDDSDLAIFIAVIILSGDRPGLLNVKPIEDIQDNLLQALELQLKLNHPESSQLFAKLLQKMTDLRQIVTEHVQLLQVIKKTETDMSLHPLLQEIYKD
Procedure: as §1, §2

HepG2 cells [1] = assay: Effect on LXR agonist-induced expression of fatty acid synthesis genes, real-time PCR; format: cell-based, human; settings: 10 nM T0901317 alone, 24 hr
HepG2 cells [2] = assay: Intracellular triacylglycerol accumulation by LXR agonist; format: cell-based, human; settings: 10 nM T0901317 alone, 24 hr
Procedure: HepG2 cells (2.0×10^5 cells/mL) were cultured in DMEM medium containing 10% FES for 24 hr, and the medium was exchanged with 0.1% BSA-containing DMEM medium containing 10 nM LXR agonist T0901317 (Cayman Chemicals) and 60 μM various fatty acid. After culture for 24 hr, the cells were recovered, and total RNA was extracted using Sepasol reagent (Nacalai Tesque). After DNase treatment, reverse transcription was performed using SuperScriptII (Invitrogen) to give a cDNA solution. Using SYBR Green Mix (Bio-Rad, Richmond, Calif.) and gene-specific primer (Table 1), real-time PCR was performed as follows.
1. Reaction at 96° C., 15 min, 2. reaction at 96° C., 15 sec, 3. reaction at 60° C. for 30 sec, 4. measurement of fluorescence, 5. 2-4 were repeated 40 times, 6. the melting curve was measured from 65° C. to 95° C. at 0.4° C. intervals. As the internal standard, 18S rRNA was used. The genes involved in the fatty acid synthesis as measured were Sterol regulatory element binding protein-1c (SREBP-1c), Stearoyl coenzyme A desaturase-1 (SCD-1), Fatty acid synthase (FAS), and Acetyl CoA carboxylase-1 and -2 (ACC-1, 2). As for the amount of accumulated intracellular TG, the lipid was extracted with chloroform-methanol, and quantified by triglyceride-′E Test Wako (Wako Pure Chemical Industries, Ltd.).

Structure (SMILES) | PPARα agonist activity (relative luciferase activity) (PPARα) | lipid synthesis suppressive action by the antagonizing action on LXR (LXR) | PPARγ agonist activity (relative luciferase activity) (PPARγ) | expression of SREBP-1c mRNA (HepG2 cells [1]) | intracellular triacylglycerol level (HepG2 cells [2])
CCCCCCCCC(O)CCCCCCCCC(=O)O (stereo not shown) [HYB, 10-hydroxyoctadecanoic acid] | PPARα agonist activity | lipid synthesis suppressive action |  |  | 
CCCCCCCCC(=O)CCCCCCCCC(=O)O [KetoB, 10-oxooctadecanoic acid] | PPARα agonist activity |  |  |  | 
CCCCCC/C=C/C(=O)CCCCCCCCC(=O)O [KetoC, 10-oxo-trans-11-octadecenoic acid] | PPARα and γ agonist activity |  | PPARα and γ agonist activity |  | 
CCCCCC[C@@H](O)C/C=C\CCCCCCCC(=O)O [RA, ricinoleic acid] | PPARα agonist activity | lipid synthesis suppressive action |  |  | 
O=S(=O)(c1ccccc1)N(CC(F)(F)F)c1ccc(C(O)(C(F)(F)F)C(F)(F)F)cc1 [T0901317, reference compound] |  |  |  | about 7 fold | increased
CCCCCCC(O)CC(O)CCCCCCCCC(=O)O (stereo not shown) [rHYA, 10,12-dihydroxyoctadecanoic acid] | PPARα agonist activity |  |  |  | 
CCCCCCC(O)CCCCCCCCCCC(=O)O (stereo not shown) [rHYB, 12-hydroxyoctadecanoic acid] | PPARα agonist activity | lipid synthesis suppressive action |  |  | 
CCCCCCC(=O)CCCCCCCCCCC(=O)O [rKetoB, 12-oxooctadecanoic acid] | PPARα agonist activity | lipid synthesis suppressive action |  |  | 
CC/C=C\C/C=C\CC(O)CCCCCCCCC(=O)O (stereo not drawn) [αHYA, 10-hydroxy-cis-12,cis-15-octadecadienoic acid] | PPARα agonist activity |  |  |  | 
CC/C=C\C/C=C\CC(=O)CCCCCCCCC(=O)O [αKetoA, 10-oxo-cis-12,cis-15-octadecadienoic acid] |  | lipid synthesis suppressive action | PPARγ agonist activity |  | 
CC/C=C\CC/C=C/C(=O)CCCCCCCCC(=O)O [αKetoC, 10-oxo-trans-11,cis-15-octadecadienoic acid] | PPARα and γ agonist activity |  | PPARα and γ agonist activity |  | 
CCCCC/C=C\CC(O)CC/C=C\CCCCC(=O)O (stereo not drawn) [γHYA, 10-hydroxy-cis-6,cis-12-octadecadienoic acid] | PPARα agonist activity | lipid synthesis suppressive action |  |  | 
CCCCC/C=C\CC(=O)CC/C=C\CCCCC(=O)O [γKetoA, 10-oxo-cis-6,cis-12-octadecadienoic acid] |  | lipid synthesis suppressive action | PPARγ agonist activity |  | 
CCCCCC/C=C/C(=O)CC/C=C\CCCCC(=O)O [γKetoC, 10-oxo-cis-6,trans-11-octadecadienoic acid] | PPARα and γ agonist activity |  | PPARα and γ agonist activity |  | 
